Measured values reported in US20200181117A1, “SUBSTITUTED 3-HETEROARYLOXY-1H-PYRAZOLES AND SALTS THEREOF AND THEIR USE AS HERBICIDAL ACTIVE SUBSTANCES” (BAYER CROPSCIENCE AKTIENGESELLSCHAFT, priority 2017, published 2020).

Key:
Assay type in all cases: in vivo
Matricaria inodora = experiment: Pre-emergence herbicidal action; conditions: 1280 g/ha, scored visually after about 3 weeks vs untreated controls
From the text: (§1) Pre-Emergence Herbicidal Action and Crop Plant Compatibility Seeds of monocotyledonous and dicotyledonous weed plants and crop plants were placed in plastic or wood fiber pots and covered with soil. The compounds of the invention, formulated in the form of wettable powders (WP) or as emulsion concentrates (EC), were then applied onto the surface of the covering soil as aqueous suspension or emulsion with addition of 0.5% additive at a water application rate of 600 l/ha (converted). After the treatment, the pots were placed in a greenhouse and kept under good growth conditions for the test plants. After about 3 weeks, the effect of the preparations was scored visually in comparison with untreated controls as percentages. For example, 100% activity=the plants have died, 0% activity=like control plants. Tables C1 to C14 below show the effects of selected compounds of the general formula (I) according to Table I on various harmful plants and an application rate corresponding to 1280 g/ha, which were obtained by the experimental procedure mentioned above.

Alopecurus myosuroides [1] = experiment: Pre-emergence herbicidal action; conditions: 1280 g/ha, scored visually after about 3 weeks vs untreated controls
From the text: as §1

Amaranthus retroflexus [2] = experiment: Pre-emergence herbicidal action; conditions: 1280 g/ha, scored visually after about 3 weeks vs untreated controls
From the text: as §1

Viola tricolor [3] = experiment: Pre-emergence herbicidal action; conditions: 1280 g/ha, scored visually after about 3 weeks vs untreated controls
From the text: as §1

Polygonum convolvulus [4] = experiment: Pre-emergence herbicidal action; conditions: 1280 g/ha, scored visually after about 3 weeks vs untreated controls
From the text: as §1

Setaria viridis [5] = experiment: Pre-emergence herbicidal action; conditions: 1280 g/ha, scored visually after about 3 weeks vs untreated controls
From the text: as §1

Veronica persica [6] = experiment: Pre-emergence herbicidal action; conditions: 1280 g/ha, scored visually after about 3 weeks vs untreated controls
From the text: as §1

Lolium rigidum = experiment: Pre-emergence herbicidal action; conditions: 1280 g/ha, scored visually after about 3 weeks vs untreated controls
From the text: as §1

Stellaria media [7] = experiment: Pre-emergence herbicidal action; conditions: 1280 g/ha, scored visually after about 3 weeks vs untreated controls
From the text: as §1

Echinochloa crus-galli [8] = experiment: Pre-emergence herbicidal action; conditions: 1280 g/ha, scored visually after about 3 weeks vs untreated controls
From the text: as §1

Abutilon theophrasti [9] = experiment: Pre-emergence herbicidal action; conditions: 1280 g/ha, scored visually after about 3 weeks vs untreated controls
From the text: as §1

Hordeum murinum = experiment: Pre-emergence herbicidal action; conditions: 1280 g/ha, scored visually after about 3 weeks vs untreated controls
From the text: as §1

Pharbitis purpurea = experiment: Post-emergence herbicidal action; conditions: 1280 g/ha, rated visually after about 3 weeks vs untreated controls
Procedure: (§2) A. Post-Emergence Herbicidal Action and Crop Plant Compatibility Seeds of monocotyledonous and dicotyledonous weeds and crop plants were placed in sandy loam in plastic or wood-fiber pots, covered with soil and cultivated in a greenhouse under controlled growth conditions. 2 to 3 weeks after sowing, the test plants were treated at the one-leaf stage. The compounds of the invention, formulated in the form of wettable powders (WP) or as emulsion concentrates (EC), were then sprayed onto the green parts of the plants as aqueous suspension or emulsion with addition of 0.5% additive at a water application rate of 600 l/ha (converted). After the test plants had been kept in the greenhouse under optimum growth conditions for about 3 weeks, the activity of the preparations was rated visually in comparison to untreated controls. For example, 100% activity=the plants have died, 0% activity=like control plants. Tables B1 to B15 below show the effects of selected compounds of the general formula (I) according to Table I on various harmful plants and an application rate corresponding to 1280 g/ha, which were obtained by the experimental procedure mentioned above.

Amaranthus retroflexus [10] = experiment: Post-emergence herbicidal action; conditions: 1280 g/ha, rated visually after about 3 weeks vs untreated controls
Procedure: as §2

Viola tricolor [11] = experiment: Post-emergence herbicidal action; conditions: 1280 g/ha, rated visually after about 3 weeks vs untreated controls
Procedure: as §2

Polygonum convolvulus [12] = experiment: Post-emergence herbicidal action; conditions: 1280 g/ha, rated visually after about 3 weeks vs untreated controls
Procedure: as §2

Setaria viridis [13] = experiment: Post-emergence herbicidal action; conditions: 1280 g/ha, rated visually after about 3 weeks vs untreated controls
Procedure: as §2

Stellaria media [14] = experiment: Post-emergence herbicidal action; conditions: 1280 g/ha, rated visually after about 3 weeks vs untreated controls
Procedure: as §2

Abutilon theophrasti [15] = experiment: Post-emergence herbicidal action; conditions: 1280 g/ha, rated visually after about 3 weeks vs untreated controls
Procedure: as §2

Avena fatua = experiment: Pre-emergence herbicidal action; conditions: 1280 g/ha, scored visually after about 3 weeks vs untreated controls
From the text: as §1

Alopecurus myosuroides [16] = experiment: Post-emergence herbicidal action; conditions: 1280 g/ha, rated visually after about 3 weeks vs untreated controls
Procedure: as §2

Echinochloa crus-galli [17] = experiment: Post-emergence herbicidal action; conditions: 1280 g/ha, rated visually after about 3 weeks vs untreated controls
Procedure: as §2

Veronica persica [18] = experiment: Post-emergence herbicidal action; conditions: 1280 g/ha, rated visually after about 3 weeks vs untreated controls
Procedure: as §2

| Compound | herbicidal activity on Matricaria inodora (Matricaria inodora) | herbicidal activity on Alopecurus myosuroides (Alopecurus myosuroides [1]) | herbicidal activity on Amaranthus retroflexus (Amaranthus retroflexus [2]) | herbicidal activity on Viola tricolor (Viola tricolor [3]) | herbicidal activity on Polygonum convolvulus (Polygonum convolvulus [4]) | herbicidal activity on Setaria viridis (Setaria viridis [5]) | herbicidal activity on Veronica persica (Veronica persica [6]) | herbicidal activity on Lolium rigidum (Lolium rigidum) | herbicidal activity on Stellaria media (Stellaria media [7]) | herbicidal activity on Echinochloa crus-galli (Echinochloa crus-galli [8]) | herbicidal activity on Abutilon theophrasti (Abutilon theophrasti [9]) | herbicidal activity on Hordeum murinum (Hordeum murinum) | herbicidal activity on Pharbitis purpurea (Pharbitis purpurea) | herbicidal activity on Amaranthus retroflexus (Amaranthus retroflexus [10]) | herbicidal activity on Viola tricolor (Viola tricolor [11]) | herbicidal activity on Polygonum convolvulus (Polygonum convolvulus [12]) | herbicidal activity on Setaria viridis (Setaria viridis [13]) | herbicidal activity on Abutilon theophrasti (Abutilon theophrasti [15]) | herbicidal activity on Alopecurus myosuroides (Alopecurus myosuroides [16]) | herbicidal activity on Echinochloa crus-galli (Echinochloa crus-galli [17]) | further results |
| --- | --- | --- | --- | --- | --- | --- | --- | --- | --- | --- | --- | --- | --- | --- | --- | --- | --- | --- | --- | --- | --- |
| CCc1c(Sc2ccc(F)c(F)c2)c(Oc2ncc(F)cn2)nn1C [Example I-037] | 90% | 100% | 100% | 100% | 100% | 100% | 100% | 100% | 100% | 100% | 100% | 90% | 100% | 100% | 100% | 80% | 100% | 90% | – | – | herbicidal activity on Stellaria media (Stellaria media [14]): 100% |
| Cc1c(Sc2ccc(F)cc2F)c(Oc2ncccn2)nn1C [Example I-044, 2-[4-(2,4-Difluorophenyl)sulfanyl-1,5-dimethylpyrazol-3-yl]oxypyrimidine] | 100% | 100% | 100% | 100% | 90% | 100% | 100% | 90% | 100% | 100% | 100% | 90% | 100% | 100% | 100% | 100% | 100% | 100% | 90% | 100% | herbicidal activity on Avena fatua (Avena fatua): 100%; herbicidal activity on Stellaria media (Stellaria media [14]): 100% |
| Cc1c(Sc2ccc(F)cc2)c(Oc2ncc(F)cn2)nn1C [Example I-090] | 100% | 100% | 100% | 100% | 90% | 100% | 100% | 90% | 100% | 100% | 100% | 100% | – | 100% | 100% | 100% | 100% | 100% | 100% | 80% | herbicidal activity on Avena fatua (Avena fatua): 100%; herbicidal activity on Stellaria media (Stellaria media [14]): 100% |
| Cc1c(Sc2cccc(Cl)c2)c(Oc2ncc(F)cn2)nn1C [Example I-091] | 100% | 100% | 100% | 100% | 100% | 100% | 100% | 90% | 100% | 100% | 100% | 100% | 80% | 80% | 100% | – | 100% | 80% | 80% | 80% | herbicidal activity on Avena fatua (Avena fatua): 90% |
| Cc1c(Sc2cccc(F)c2)c(Oc2ncccn2)nn1C [Example I-092] | 100% | 100% | 100% | 90% | 90% | 100% | 100% | 100% | 90% | 100% | 100% | 100% | 80% | 100% | 100% | 100% | 100% | 100% | 90% | 100% | herbicidal activity on Avena fatua (Avena fatua): 90%; herbicidal activity on Stellaria media (Stellaria media [14]): 100% |
| COc1cnc(Oc2nn(C)c(C)c2Sc2cccc(Cl)c2)nc1 [Example I-134] | 100% | 100% | 100% | 100% | 100% | 100% | 100% | 100% | 100% | 90% | 100% | 90% | 80% | 100% | 100% | 80% | – | 90% | 90% | 80% | herbicidal activity on Avena fatua (Avena fatua): 80% |
| CC(C)n1cc(Sc2ccc(F)cc2)c(Oc2ncc(Cl)cn2)n1 [Example I-137] | – | – | 100% | 100% | 100% | 100% | – | – | 100% | – | – | – | – | 80% | 100% | – | – | – | – | – | herbicidal activity on Veronica persica (Veronica persica [18]): 90% |
| Cn1cc(Sc2ccc(Cl)cc2)c(Oc2ncc(Cl)cn2)n1 [Example I-188] | – | – | 100% | 100% | – | 100% | – | – | 90% | 80% | – | – | – | 100% | – | – | – | – | – | – | herbicidal activity on Veronica persica (Veronica persica [18]): 100% |
| Fc1cnc(Oc2nn3c(c2Sc2ccc(F)cc2F)CCOCC3)nc1 [Example I-192] | 100% | 100% | 80% | 100% | 100% | 100% | 100% | – | 90% | 100% | 100% | 90% | – | – | 80% | 100% | – | 80% | 80% | 80% | – |
